# What was measured:
# SR = test: NCI 60 five dose assay, Leukemia; assay type: cell-based, human
# NCI-H322M = test: NCI 60 five dose assay, Non-small cell lung cancer; assay type: cell-based, human
# SF-539 = test: NCI 60 five dose assay, CNS cancer; assay type: cell-based, human
# M14 = test: NCI 60 five dose assay, Melanoma; assay type: cell-based, human
# MDA-MB-435 = test: NCI 60 five dose assay, Melanoma; assay type: cell-based, human
# SK-MEL-28 = test: NCI 60 five dose assay, Melanoma; assay type: cell-based, human
# SK-MEL-5 = test: NCI 60 five dose assay, Melanoma; assay type: cell-based, human
# SK-OV-3 = test: NCI 60 five dose assay, Ovarian cancer; assay type: cell-based, human
# TK-10 = test: NCI 60 five dose assay, Renal cancer; assay type: cell-based, human
# BT-549 = test: NCI 60 five dose assay, Breast cancer; assay type: cell-based, human
# CCRF-CEM = test: NCI 60 single dose screen, Leukemia; assay type: cell-based, human; conditions: single dose 10 μM
# Procedure: (§1) The newly synthesized pyrazoles 2a–g, 7a–d, 8a and b, 9, and 10 were submitted to the National Cancer Institute (NCI) Developmental Therapeutics Program (http://www.dtp.nci.nih.gov) for assessment of their potential antiproliferative activity against a panel of NCI 60 cancer cell lines. All compounds were approved for screening against the approved 60 cancer cell lines at a single dose of 10 μM. The human cancer cell lines were derived from 9 variant cancer types including leukemia, melanoma, lung, colon, CNS, ovarian, renal, prostate and breast cancers. The results are presented as percentage of growth inhibition (GI%) of the screened compounds against the full panel of cell lines.
# (§2) Under sterile conditions, the cell lines were grown in RPMI 1640 media (Gibco, NY, USA) supplemented with 10% fetal bovine serum (Biocell, CA, USA), and […] cell/mL was used to test the growth inhibition activity of the synthesized compounds. The compounds with concentrations ranging from 0.01 to 100 μM were prepared in phosphate buffer saline. Each compound was initially solubilized in dimethyl sulfoxide (DMSO); however, each final dilution contained less than 1% DMSO. Solutions of different concentrations (0.2 mL) were pipetted into the separate well of a microtiter tray in duplicate. Cell culture (1.8 mL) containing a cell population of […] cells per mL was pipetted into each well. Controls, containing only phosphate buffer saline and DMSO at identical dilutions, were also prepared in the same manner. These cultures were incubated in a humidified incubator at 37 °C. The incubator was supplied with 5% CO2 atmosphere. After 48 h, the cells in each well were diluted 10 times with saline and counted using a Coulter counter. The counts were corrected for the dilution.[34]
# RPMI-8226 = test: NCI 60 single dose screen, Leukemia; assay type: cell-based, human; conditions: single dose 10 μM
# Procedure: as §1, §2
# NCI 60 cancer cell lines = test: NCI 60 single dose screen, mean over full panel; assay type: cell-based, human; conditions: mean over NCI 60 cell lines; single dose 10 μM
# Procedure: as §1, §2
# HCT-116 cell line = test: MTT cell viability assay; assay type: cell-based; conditions: Homo sapiens, read-out: IC50 (cytotoxicity, MTT)
# HCT-116 cells = test: Flow cytometric analysis of apoptosis (Annexin V-FITC/PI); assay type: cell-based; conditions: 1.806 μM, 48 h
# Procedure: For the detection of apoptosis in the treated cells, the Annexin V-FITC-apoptosis detection kit (PN IM3546) was used, followed by flow cytometric analysis according to the manufacturer's protocol. In this assay, HCT-116 cells were allowed to grow in a […] flask until 70–80% confluence. Then, the HCT-116 cells were treated with compound 4 for 48 h, followed by washing with PBS, and suspended in binding buffer. To […] of the cell suspension, […] of annexin V-FITC solution and […] of dissolved PI were added and incubated for 15 min in the dark. Then […] of ice-cold binding buffer was added and mixed gently. The flow cytometric analysis of the percentage of apoptotic cells was performed on a COULTER® EPICS® XL™ Flow Cytometer (USA).[35]
# MDA-MB-468 = test: NCI 60 five dose assay, Breast cancer
# [1] = Homo sapiens, read-out: LC50 (the source's name)
smiles,measurement,setting,value
"CC(=NNc1ccc(S(N)(=O)=O)cc1)c1ccc(NN=C2C(=O)NN=C2Nc2ccccc2)cc1 [Compound 4, 4-(2-(1-(4-(2-(5-oxo-3-(phenylamino)-1,5-dihydro-4H-pyrazol-4-ylidene)hydrazinyl)phenyl)ethylidene)hydrazinyl)benzene sulfonamide]",GI50,SR; Homo sapiens,1.74 µM
same,CC50,SR; [1],23.6 µM
same,Percent Growth,SR; Log10 Concentration -4.0 Molar,-87%
same,Percent Growth,SR; Log10 Concentration -5.0 Molar,-28%
same,Percent Growth,SR; Log10 Concentration -6.0 Molar,75%
same,Percent Growth,SR; Log10 Concentration -7.0 Molar,93%
same,Percent Growth,SR; Log10 Concentration -8.0 Molar,85%
same,GI50,NCI-H322M; Homo sapiens,3.72 µM
same,CC50,NCI-H322M; [1],41.9 µM
same,Percent Growth,NCI-H322M; Log10 Concentration -4.0 Molar,-93%
same,Percent Growth,NCI-H322M; Log10 Concentration -5.0 Molar,21%
same,Percent Growth,NCI-H322M; Log10 Concentration -6.0 Molar,89%
same,Percent Growth,NCI-H322M; Log10 Concentration -7.0 Molar,99%
same,Percent Growth,NCI-H322M; Log10 Concentration -8.0 Molar,103%
same,GI50,SF-539; Homo sapiens,1.58 µM
same,CC50,SF-539; [1],8.56 µM
same,Percent Growth,SF-539; Log10 Concentration -4.0 Molar,-100%
same,Percent Growth,SF-539; Log10 Concentration -5.0 Molar,-59%
same,Percent Growth,SF-539; Log10 Concentration -6.0 Molar,77%
same,Percent Growth,SF-539; Log10 Concentration -7.0 Molar,94%
same,Percent Growth,SF-539; Log10 Concentration -8.0 Molar,89%
same,GI50,M14; Homo sapiens,2.83 µM
same,CC50,M14; [1],35.1 µM
same,Percent Growth,M14; Log10 Concentration -4.0 Molar,-80%
same,Percent Growth,M14; Log10 Concentration -5.0 Molar,-14%
same,Percent Growth,M14; Log10 Concentration -6.0 Molar,103%
same,Percent Growth,M14; Log10 Concentration -7.0 Molar,101%
same,Percent Growth,M14; Log10 Concentration -8.0 Molar,93%
same,GI50,MDA-MB-435; Homo sapiens,2.07 µM
same,CC50,MDA-MB-435; [1],17.8 µM
same,Percent Growth,MDA-MB-435; Log10 Concentration -4.0 Molar,-83%
same,Percent Growth,MDA-MB-435; Log10 Concentration -5.0 Molar,-39%
same,Percent Growth,MDA-MB-435; Log10 Concentration -6.0 Molar,91%
same,Percent Growth,MDA-MB-435; Log10 Concentration -7.0 Molar,98%
same,Percent Growth,MDA-MB-435; Log10 Concentration -8.0 Molar,90%
same,GI50,SK-MEL-28; Homo sapiens,1.91 µM
same,CC50,SK-MEL-28; [1],6.99 µM
same,Percent Growth,SK-MEL-28; Log10 Concentration -4.0 Molar,-93%
same,Percent Growth,SK-MEL-28; Log10 Concentration -5.0 Molar,-78%
same,Percent Growth,SK-MEL-28; Log10 Concentration -6.0 Molar,100%
same,Percent Growth,SK-MEL-28; Log10 Concentration -7.0 Molar,109%
same,Percent Growth,SK-MEL-28; Log10 Concentration -8.0 Molar,96%
same,GI50,SK-MEL-5; Homo sapiens,3.32 µM
same,CC50,SK-MEL-5; [1],35.8 µM
same,Percent Growth,SK-MEL-5; Log10 Concentration -4.0 Molar,-100%
same,Percent Growth,SK-MEL-5; Log10 Concentration -5.0 Molar,12%
same,Percent Growth,SK-MEL-5; Log10 Concentration -6.0 Molar,91%
same,Percent Growth,SK-MEL-5; Log10 Concentration -7.0 Molar,100%
same,Percent Growth,SK-MEL-5; Log10 Concentration -8.0 Molar,95%
same,GI50,SK-OV-3; Homo sapiens,2.34 µM
same,CC50,SK-OV-3; [1],23.7 µM
same,Percent Growth,SK-OV-3; Log10 Concentration -4.0 Molar,-98%
same,Percent Growth,SK-OV-3; Log10 Concentration -5.0 Molar,-21%
same,Percent Growth,SK-OV-3; Log10 Concentration -6.0 Molar,92%
same,Percent Growth,SK-OV-3; Log10 Concentration -7.0 Molar,102%
same,Percent Growth,SK-OV-3; Log10 Concentration -8.0 Molar,89%
same,GI50,TK-10; Homo sapiens,18.6 µM
same,CC50,TK-10; [1],> 100 µM
same,Percent Growth,TK-10; Log10 Concentration -4.0 Molar,-25%
same,Percent Growth,TK-10; Log10 Concentration -5.0 Molar,78%
same,Percent Growth,TK-10; Log10 Concentration -6.0 Molar,101%
same,Percent Growth,TK-10; Log10 Concentration -7.0 Molar,102%
same,Percent Growth,TK-10; Log10 Concentration -8.0 Molar,97%
same,GI50,BT-549; Homo sapiens,2.83 µM
same,CC50,BT-549; [1],31.1 µM
same,Percent Growth,BT-549; Log10 Concentration -4.0 Molar,-100%
same,Percent Growth,BT-549; Log10 Concentration -5.0 Molar,-1%
same,Percent Growth,BT-549; Log10 Concentration -6.0 Molar,92%
same,Percent Growth,BT-549; Log10 Concentration -7.0 Molar,105%
same,Percent Growth,BT-549; Log10 Concentration -8.0 Molar,94%
same,GI%,CCRF-CEM,96.41%
same,GI%,RPMI-8226,96.53%
same,mean GI%,NCI 60 cancer cell lines,96.47%
same,IC50,HCT-116 cell line,1.81 µM
same,"Apoptosis, Late",HCT-116 cells; control 0.13,15.81%
same,"Apoptosis, Early",HCT-116 cells; control 0.35,4.63%
same,Necrosis,HCT-116 cells; control 1.58,7.21%
same,"Apoptosis, Total",HCT-116 cells; control 2.06,27.65%
same,GI50,"MDA-MB-468; Homo sapiens, MDA-MB-468",1.4 µM
same,CC50,"MDA-MB-468; Homo sapiens, MDA-MB-468, read-out: LC50",6.41 µM
same,TGI,MDA-MB-468; MDA-MB-468,3 µM

# Source: PMC11520566, “Discovery of pyrazole-based analogs as CDK2 inhibitors with apoptotic-inducing activity: design, synthesis and molecular dynamics study” (RSC Advances, 2024)
